The subject of series [1] is human HSP70 promoter. In words: Activation of cellular heat shock response (HeLa hse-luc luciferase reporter). It counts as cell-based. Particulars: 8 h. As for the experimental part:
FIG. 6. Arylsulfanyl pyrazolones fail to induce heat shock response in Hsp 70 promoter assays. HeLa hse-luc cells were treated with arylsulfanyl pyrazolones (1 μM-100 μM), celestrol (1 μM-5 μM), or CdCl2 (10 μM-100 μM), for 8 h and activation of the heat shock response determined by HSP70 promoter activity.
Mechanism of action studies have been initiated for provided compounds. provided compounds active in the cytotoxicity protection assay were initially assayed for the ability to prevent SOD1 aggregation using manual, low-throughput methods. […] The ability of provided compounds to induce expression of molecular chaperones was also tested using stably-transfected HeLa cells (HeLa hse-luc) expressing a luciferase reporter gene under the control of the human HSP70 promoter. This HeLa hse-luc reporter system was used previously to identify small-molecule activators of the heat shock response (Westerheide et al. J. Biol. Chem. 2004, 279(53), 56053-56060).
HeLa cells, stably transfected with a luciferase reporter plasmid under control of the HSP70 promoter, were plated in a 96 well plate at a density of 7500 cells/100 μl. […] Cells were lysed by the addition of 100 μl BrightGlo reagent (Promega) according to manufacturer's instructions and luciferase activity measured by quantifying luminescence signal. […]
On the technique in general: Reporter assays use an easily measured gene product as a stand-in for the process of interest.

Series [2] in a line: Aqueous solubility. It counts as physicochemical. The settings on record: no precipitation at the highest concentration. As for the experimental part:
Solubility: Because compounds are stored in DMSO, it is necessary to determine aqueous solubility of initial hit compounds and their analogs. High solubility in aqueous solution is necessary for high GI absorption, bioavailability, and for chemical formulation. Compounds should be soluble in aqueous solution at >10 μg/ml. Solubility of >50 μg/ml is preferred.

Series [3] has as its system cortical neurons. Kind of series: Cortical neuron assay. In kind it is cell-based. Particulars: 10 μM. As to the method:
Selected compounds were tested with cortical neurons—a useful preliminary step prior to the expensive and time-consuming ALS mouse model studies. Although long linker compound 24 and cyclic linker compound 27 are active in the PC12 assay, they are not active with cortical neurons. Compound 3 gave better results than the ether counterpart (1), recovering 100% neuronal activity at 10 μM concentration.

Series [4] in a line: In vitro plasma stability. It counts as in vitro ADME. As for the experimental part:
Plasma stability: Plasma stability of active compounds is assessed in efficacy species (mouse), toxicity species (rat, dog, monkey), and human cells.

Series [5] can be described thus: In vitro microsomal stability, human. It counts as in vitro ADME. Particulars: Human. As to the method: (§1) Metabolism (microsome, S9 fraction, CYP450): Liver Cytochrome P450 (CYP450) enzymes are the major route for xenobiotic metabolism and microsomal and hepatocyte stability is the best predictor of pharmacokinetic half-life. Cross-species comparisons of metabolism in liver microsomes can predict potential issues with liver toxicity in humans. Selected active compounds are tested in liver microsomes from efficacy species (mouse), toxicity species (rat, dog, monkey), and humans for metabolic stability.
(§2) CMB-087229 was sent for an evaluation of its in vitro ADME properties.
(§3) Two possible amines, secondary and tertiary AAP analogues, were initially screened in the protection assay (FIG. 30) and for in vitro microsomal stability (Table 1) and Caco-2 permeability (Table 2). […] The solubilities of 2 and 3 were good in aqueous media (≧150 μM), and no precipitation occurred at the highest concentration. The in vitro plasma half-life for both compounds was >60 min.

The nature of series [6]: In vitro microsomal stability, mouse. The settings on record: Mouse. In kind it is in vitro ADME. As for the experimental part:
as §1, §2, §3

In series [7] the test system is Caco-2. In words: In vitro Caco-2 permeability. In kind it is in vitro ADME. As to the method: General Permeability: High membrane permeability is required for effective GI absorption and optimal bioavailability. Passive permeability is typically assessed in the PAMPA artificial membrane assay (Kansy et al., J. Med. Chem. 2002, 45(8), 1712-1722). Cell-based permeability determinations using the Caco-2 cell assay are more resource intensive but more predictive of active transport or efflux in vivo (Artursson et al., Adv. Drug. Deliv. Rev. 2001, 46(1-3), 27-43). Caco-2 assays are performed as needed during SAR development.

The test system of series [8] is proteasome activity (Ubi-YFP degradation). Kind of series: Proteasome activity assay (Ubi-YFP in HeLa cells). Particulars: 1 μM. In kind it is cell-based. As to the method: FIG. 7. Arylsulfanyl pyrazolones prevent MG132-induced accumulation of Ubi-YFP. HeLa cells were co-transfected with Ubi-YFP and CMV-CFP plasmids, treated with 1 μM MG132 and 25 μM arylsulfanyl pyrazolones and Ubi-YFP fluorescence intensity normalized to CFP.
Since the CMB-003299 cytotoxicity of SOD1 protein aggregates may involve inhibition of proteasome activity, compounds that stimulate proteasome activity could reverse or prevent mutant SOD1-induced cytotoxicity. Thus, active compounds were tested for the ability to stimulate proteasome activity using a cell line expressing ubiquitin-conjugated YFP [Ubi-YFP 74]. In these cells, increased proteasome activity causes increased degradation of Ubi-YFP and decreased YFP fluorescence. Conversely, compounds that inhibit proteasome activity increase accumulation of Ubi-YFP and enhanced YFP fluorescence. As expected, MG132 augments YFP fluorescence intensity ˜3-fold compared to untreated controls (FIG. 7). […] Protein aggregates are present in the absence of MG132 and aggregation is suppressed following treatment with a provided compound.
HeLa cells (20,000/chamber) were plated on 8 chambered Tissue-tek coverglass pretreated with 1 mg/ml poly-D-lysine and allowed to adhere for 18 h at 37° C./5% CO2. Cells were transfected with 0.2 μg each CMV-CFP and Ubi-YFP plasmids using Lipofectamine 2000 according to manufacturer's instructions. Cells were allowed to express CFP and Ubi-YFP for 18 h followed by a 6 h incubation with test compounds (25 μM). MG132 (1 μM) was added for a final 18 h incubation and Ubi-YFP degradation assessed by fluorescence microscopy. Fluorescence intensity of CFP and YFP was calculated on a cell-by-cell basis from captured images using AxioVision software (Zeiss). YFP fluorescence was normalized to CFP fluorescence.

Series [9] deals with PC12 cells expressing G93A mutant SOD1. In words: Mutant SOD1 protein aggregation. In kind it is cell-based. As to the method: (§4) In PC12 cells that express wild-type SOD1, SOD1 was diffusely localized throughout the cell (Matsumoto et al., J. Cell. Biol. 2005, 171(1), 75-85). […] Therefore, these effects are likely to be due to MG132-induced proteasome inhibition, and not due to an off-target effect of MG132.
The identification of a positive control is a crucial step in assay development. Thus, PC12 cells expressing G85R or G93A mutant SOD1 were treated with MG132 to induce protein aggregation, and then co-treated with candidate chemical suppressors of protein aggregation. Two compounds with similar activity were identified in these experiments: geldanamycin and radicicol. Both compounds induce heat shock transcription factor […], which in turn induces the heat shock response (FIG. 4).
Mechanism of action studies have been initiated for provided compounds. provided compounds active in the cytotoxicity protection assay were initially assayed for the ability to prevent SOD1 aggregation using manual, low-throughput methods. […] The ability of provided compounds to induce expression of molecular chaperones was also tested using stably-transfected HeLa cells (HeLa hse-luc) expressing a luciferase reporter gene under the control of the human HSP70 promoter. […]

Series [10] relates to PC12 cells expressing wild-type SOD1. In words: SOD1 protein aggregation, wild type control line. It counts as cell-based. The settings on record: cells treated with MG132. As for the experimental part:
FIGS. 3A-F. Mutant but not wild type SOD1 aggregates in cells treated with the proteasome inhibitor MG132. Fluorescence micrographs of PC12 cells expressing YFP tagged wild type (WT), G93A mutant (G93A), and G85R mutant (G85R)SOD1 proteins (3A-C). The micrographs show the effects of treating cells with 200 nM MG132 for 24 hours (untreated cells are shown in insets on left, 3D-F, respectively). The wild type SOD1 expressing cells are unaffected while cells expressing mutant SOD1 show large perinuclear aggregates.
as §4

Series [11] concerns PC12 cells expressing G93A SOD1. Kind of series: Sensitivity of PC12 cells to proteasome inhibitor, calcein-AM viability. In kind it is cell-based. As for the experimental part: (§5) FIGS. 1A-C. […] Cell survival was determined using the viability stain calcein-AM.
Series [12] has as its system PC12 cells expressing no SOD1, wild type SOD1 and G85R SOD1. The description is as above. In kind it is cell-based. As for the experimental part: as §5
Series [13] relates to PC12 cells expressing G85R SOD1. In words: Mutant SOD1 protein aggregation assay. It counts as cell-based.
Description: Compounds that are active in the above assay could theoretically protect against mutant SOD1-induced cytotoxicity through a number of mechanisms, including the following: 1) compounds could nonspecifically block or reverse protein aggregation via chaperone induction, as observed for radicicol and geldanamycin; 2) compounds could block or reverse the aggregation of a specific aggregated protein form; 3) compounds could interfere with an event downstream of protein aggregation that plays a critical role in mutant SOD1-induced cytotoxicity (e.g., proteasome function); and 4) compounds could act directly on SOD1 in a manner that prevents mutant SOD1 aggregation. These possibilities were tested using an assay that directly measures protein aggregation. In addition, unlike the high throughput cytotoxicity protection assay, the protein aggregation assay is based on G85R SOD1; this broadens the scope of the screening strategy, and should eliminate compounds with highly specific activity (i.e., G93A SOD1 limited) against protein aggregation.
as §4
The identification of a positive control is a crucial step in assay development. Thus, PC12 cells expressing G85R or G93A mutant SOD1 were treated with MG132 to induce protein aggregation, and then co-treated with candidate chemical suppressors of protein aggregation. […]
To allow this assay to be used in a high-throughput manner, a Cellomics Arrayscan® high content microscopy system was used for screening and quantification. […]
Arrayscan images were recorded using a 20× objective and the XF93-TRITC filter set in channel 1 for the Image-iT WGA plasma membrane dye or the XF93-FITC filter set for SOD1-YFP and analyzed using Cellomics spot detector software. […] Data were recorded as spot count (aggregate)/object (cell).

Series [14] deals with PC12 cells that express mutant G93A SOD1. In words: Mutant SOD1-induced cytotoxicity protection assay. Particulars: rat, 48 h. As for the experimental part:
This idea was tested by examining the sensitivity of PC12 cells to SOD1 aggregates in the presence and absence of proteasome inhibitor MG132. PC12 cells expressing no SOD1, wild type SOD1, G85R SOD1 or G93A SOD1 were grown with or without MG132 (FIG. 1).
PC12 cells expressing G93A SOD1 were treated with 100 nM MG132 with or without co-treatment with geldanamycin or radicicol.

Where a SMILES comes first, the peptide text is derived from it. The star is where a group is joined. Cbz = O=C(OCc1ccccc1)*

Regarding `[Cl][Cd][Cl]` [CdCl2], in series [1], the “luciferase activity (HSP70 promoter)” value is “strongly induced luciferase activity”.

Take `CN(Cc1cc(=O)[nH][nH]1)c1cc(Cl)cc(Cl)c1` [Compound 3, 5-(((3,5-Dichlorophenyl)(methyl)amino)methyl)-1H-pyrazol-3(2H)-one]: the “solubility in aqueous media” value in [2] is ≥ 150 µM. In addition, in [3], the neuronal activity recovered was found to be 100%. The “in vitro plasma half-life” value in series [4] is > 1 h. Besides, the T1/2 in [5] (NADPH-absent) is >3 h; in series [5] (NADPH-dependent) it was >3 h; in series [6] (NADPH-absent), >3 h; in [6] (NADPH-dependent) it was 0.417 h. Moreover, the microsomal CLint (commonly the capacity of the preparation to metabolise the compound, expressed as a volume cleared per time) in series [6] (mouse, liver microsomes, NADPH-dependent, read-out: CLint (microsomal intrinsic clearance)) amounted to 93 µL/min/mg. The “Efflux ratio (B→A)/(A→B)” value in series [7] was 3.5. Also, the “Papp (A→B)” value in [7] is listed as 2.2 10^−6 cm/s. Besides, in series [7], the “Papp (B→A)” value is recorded as 7.6 10^−6 cm/s.

For `CC(C)C[C@@H](C=O)NC(=O)[C@H](CC(C)C)NC(=O)[C@H](CC(C)C)NC(=O)OCc1ccccc1` [MG132] (Cbz-Leu-Leu-Leu-aldehyde), the “YFP fluorescence intensity compared to untreated controls” value in [8] was ~3 fold. For the same compound, the “cells with protein aggregates” value in series [9] (following treatment with MG132) is recorded as ~75%. Also, the “aggregation, in words” value in series [10] is “no aggregation was observed”. Besides, the “sensitivity of G93A SOD1 cells relative to the other lines” value in series [11] is “approximately 5 fold”. For the same compound, the “toxicity, in words” value is given as “selectively toxic” in series [11] (100 nM, 48 hours) and “no toxicity” in [12] (100 nM, 24 hours, any of the cell lines). Also, the half-inhibitory concentration (IC50) (commonly the point on the concentration scale where inhibition reaches its midpoint) in series [11] (Rattus norvegicus, PC-12, read-out: IC50 of proteasome inhibitor on cell viability) was ~75 nM; in [12] (Rattus norvegicus, PC-12, cells expressing no SOD1, wild type SOD1 and G85R SOD1, read-out: IC50 of proteasome inhibitor on cell viability) it was ~400 nM. Besides, the “cells containing protein aggregates” value in series [13] (cells treated with MG132) is “up to 75%”.

With `C[C@@H]1C[C@H]2O[C@@H]2/C=C\C=C\C(=O)Cc2c(Cl)c(O)cc(O)c2C(=O)O1` [Radicicol, reference compound], in [14], the “efficacy (maximum viability at optimum dosage)” value turned out to be 80%. Moreover, the results for the “effect on protein aggregation, in words” value in [9] (MG132-treated cells) and in series [13] (MG132-induced aggregation) were “reduced formation of protein aggregates” and “decreases mutant SOD1 aggregation”, respectively. Further, the “proportion of cells with aggregates” value in series [13] (G85R or G93A mutant SOD1 cells, MG132 plus co-treatment, 75% without) is 25%.

`CC1=C(O)C(=O)C=C2C1=CC=C1[C@@]2(C)CC[C@@]2(C)[C@@H]3C[C@](C)(C(=O)O)CC[C@]3(C)CC[C@]12C` [celastrol, celestrol]: the “luciferase activity (HSP70 promoter)” value in series [1] was “strongly induced luciferase activity”.

The values are drawn from patent publication US9145424B2, “Treatment of amyotrophic lateral sclerosis” (Northwestern University, priority 2008, dated 2015).
